# pIC50: −log10 of the molar value.
# Experiments:
# [1] = system: Mycobacterium tuberculosis; test: Antimycobacterial activity against Mycobacterium tuberculosis; type: functional
# [2] = system: Mycobacterium tuberculosis; test: Antimycobacterial activity against Mycobacterium tuberculosis 90-221387; type: functional
# [3] = system: Mycobacterium tuberculosis; test: Antimycobacterial activity against Mycobacterium tuberculosis isolate CIBIN/UMF 15:19; type: functional
# [4] = system: Mycobacterium tuberculosis; test: Antimycobacterial activity against Mycobacterium tuberculosis H37Rv ATCC 27294; type: functional
# Vero = test: Cytotoxicity against african green monkey Vero cells; type: cell-based; settings: Chlorocebus sabaeus
# [5] = system: Mycobacterium tuberculosis; test: Antimycobacterial activity against Mycobacterium tuberculosis H37Rv; type: functional
# [6] = Selectivity index, ratio of IC50 for african green monkey Vero cells to MIC for Mycobacterium tuberculosis H37Rv; type: functional
# [7] = Mycobacterium tuberculosis, H37Rv, read-out: MIC
SMILES,MIC [1],MIC [4],further results
COc1cc(O[C@@H]2O[C@H](CO)[C@@H](O)[C@H](O)[C@H]2O)c2c(O)c(C(C)=O)c(C)cc2c1,8.9 µM,,
COc1cc([C@H]2O[C@@]3(c4cc(OC)c5c(c4)OCO5)O[C@@]3(C)[C@@H]2C)cc(OC)c1OC,,,MIC [2]: 30 µg/mL
COc1cc([C@H]2O[C@@]3(c4cc(OC)c(OC)c(OC)c4)O[C@@]3(C)[C@@H]2C)cc(OC)c1OC,,,MIC [2]: 40 µg/mL
COc1c(O)cc2c(c1CC=C(C)C)C(=O)c1c(cc(OS(=O)(=O)O)c(CC=C(C)C)c1O)C2,6.75 µM,,
CC(=O)c1c(C)cc2cccc(O[C@@H]3O[C@H](CO)[C@@H](O)[C@H](O)[C@H]3O)c2c1O,26.6 µM,,
CC(=O)OC[C@H]1O[C@@H](Oc2cccc3c2C(=O)c2c(O)cc(C)cc2C3=O)[C@H](O)[C@@H](O)[C@@H]1O,4.1 µM,,
CCCOC(=O)[C@]12CC[C@@]3(C)C[C@H]4O[C@@]4(C)[C@H]4O[C@H]4[C@H]3[C@@H]1CC[C@@H]2C(C)C,,6.25 µg/mL,MIC [3]: 6.25 µg/mL
CCCCOC(=O)[C@]12CC[C@@]3(C)C[C@H]4O[C@@]4(C)[C@H]4O[C@H]4[C@H]3[C@@H]1CC[C@@H]2C(C)C,,6.25 µg/mL,MIC [3]: 6.25 µg/mL
COc1ccc(C(=O)OC2=C(C(C)C)C(=O)C3=C(C2=O)[C@@]2(C)CCCC(C)(C)[C@@H]2[C@H](O)[C@H]3OC(C)=O)cc1,,,"IC50 (Vero): 2.58 µg/mL; MIC [5, 7]: 3.12 µg/mL"
CCCCCCC[C@@H]1C[C@@H]2CCC3=C(C(=O)OCCCCCCC[C@@H]4C[C@@H]5CC[C@@H]6C[C@H](C)NC(=N4)N65)C(C)N=C(N1)N32 (some centres not stated),,28.5 µg/mL,
CCCCCCC[C@H]1C[C@H]2CCC3=C(C(=O)OCCCCNC(=N)N)C(CCCCC)N=C(N1)N32 (some centres not stated),,34.7 µg/mL,
CCCCCCC[C@H]1C[C@H]2CCC3=C(C(=O)OCCCCNC(=N)N)C(CCCCC)=NC(=N1)N32,,37.7 µg/mL,
CCC1C=CCC[C@@]2(C[C@@H]3CC[C@@H]4[C@H](C(=O)OCCCCCCCCCCCCCCCC(=O)N(CCCN)C[C@@H](O)CCN)[C@]5(CCC[C@@H](C)O5)NC(=N2)N34)O1 (some centres not stated),,46.5 µg/mL,
CC(=O)OC[C@@]12CC[C@]3(C)[C@@H](C(C)C)CC[C@H]3[C@@]13C[C@H]3[C@](C)(O)CC2,,12.5 µg/mL,MIC [3]: 12.5 µg/mL
CCCOC(=O)[C@]12CC[C@@]3(C)CC[C@@](C)(O)C=C[C@H]3[C@@H]1CC[C@@H]2C(C)C,,6.25 µg/mL,MIC [3]: 6.25 µg/mL
C/C(=C\CO)CCCC(C)CCCC(C)CCCC(C)C (configuration not stated),,1.56 µg/mL,
CC(C)[C@]12C=C3CC[C@H]4[C@](C)(C(=O)O)CCC[C@]4(C)[C@]3(CC1)OO2,50 µg/mL,,
CSSc1cccc[n+]1[O-],,1.25 µg/mL,
CC(C)(O)c1ccc2c(c1)CC[C@H]1[C@](C)(C(=O)O)CCC[C@]21C,50 µg/mL,,
C[C@@H]1C[C@H](C)C(=O)/C=C/C2[C@@H](O)C3OC4=C(C(=O)O[C@@]42C[C@H]3C)C1=O (stereo in doubt; 208),8.3 µg/mL,,MIC [5]: 3.6 µM
O=C(CCCCCCCCCCCC[C@H]1C=CCC1)OCC(O)CO (some centres not stated) [ANTHELMINTHICINS C],11.3 µM,,"MIC [5, 7]: 4.38 µM"
O=C1c2cccnc2-c2nccc3c2c1nc1ccccc13 [ASCIDIDEMIN],,,"pIC50 (Vero): 6.85; Selectivity Index [6]: <1; MIC [5, 7]: 0.35 µM"
CC(=O)O[C@H]1C[C@]2(C)[C@@H](C(C)C)CC[C@H]2[C@]23C[C@H]2[C@](C)(O)CC[C@]13C [AZORELLANOL],,12.5 µg/mL,MIC [3]: 12.5 µg/mL

SMILES,MIC [1],MIC [4],further results
CC(C)[C@H]1CC[C@@H]2[C@]1(C)CC(=O)[C@@]1(C)CC[C@@](C)(O)[C@@H]3C[C@@]231 [AZORELLANONE],,12.5 µg/mL,MIC [3]: 12.5 µg/mL
CCCCCCCCC[C@@H]1C[C@@H]2CC[C@H]3[C@@H](C(=O)OC(C)CCCCCCC[C@@H]4C[C@@H]5CC[C@@H]6C[C@H](C)NC(=N4)N65)[C@@H](C)N=C(N1)N23 (some centres not stated) [BATZELLADINE L],,1.68 µg/mL,
CCCCCCC[C@@H]1C[C@@H]2CCC3=C(C(=O)OC(C)CCCCCCC[C@@H]4C[C@@H]5CC[C@@H]6C[C@H](C)NC(=N4)N65)C(C)N=C(N1)N32 (some centres not stated) [BATZELLADINE N],,3.18 µg/mL,
COc1cc([C@H]2O[C@@H](c3cc(OC)c4c(c3)OCO4)[C@@H](C)[C@@H]2C)cc(OC)c1OC [BEILSCHMIN A],,,MIC [2]: 2.5 µg/mL
COc1cc([C@H]2O[C@@H](c3cc(OC)c(OC)c(OC)c3)[C@@H](C)[C@@H]2C)cc(OC)c1OC [BEILSCHMIN B],,,MIC [2]: 7.5 µg/mL
COc1cc([C@H]2O[C@@]3(c4cc(OC)c5c(c4)OCO5)O[C@@]3(C)[C@@H]2C)cc2c1OCO2 [BEILSCHMIN D],,,MIC [2]: 50 µg/mL
CC(C)[C@@H](C)/C=C/[C@@H](C)[C@H]1CC[C@@H]2[C@]1(C)CC[C@H]1[C@]23C=C[C@]2(C[C@@H](O)CC[C@]12C)OO3 [ERGOSTEROL PEROXIDE],,,"Selectivity Index [6]: >57; MIC [5, 7]: 3.5 µM"
C#C[C@@]12O[C@]1(C=O)[C@]1(C)CC[C@H]3C(C)(C)CCC[C@]3(C)[C@H]1CC2=O [ESCOBARINE A],,25 µg/mL,MIC [3]: 12.5 µg/mL
C#C[C@@]12O[C@]1(CO)[C@]1(C)CC[C@H]3C(C)(C)CCC[C@]3(C)[C@H]1CC2=O [ESCOBARINE B],,50 µg/mL,MIC [3]: 50 µg/mL
CC[C@@H](CO)NCCN[C@@H](CC)CO [ETHAMBUTOL],,,MIC [2]: 6.2 µg/mL
O=C1c2ccccc2-c2c3c(cc4ccnc1c24)OCO3 [LIRIODENINE],12.5 µg/mL,,
COc1c(O)cc2oc3cc(O)c(CC=C(C)C)c(O)c3c(=O)c2c1CC=C(C)C [MANGOSTIN],15.2 µg/mL,,
CC(C)[C@H]1CC[C@H]2[C@@H]3C=C[C@](C)(O)CC[C@]3(C)CC[C@]12CO [MULINOL],,12.5 µg/mL,MIC [3]: 12.5 µg/mL
CC1COc2c(N3CCN(C)CC3)c(F)cc3c(=O)c(C(=O)O)cn1c23 (configuration not stated) [OFLOXACIN],,0.125 µg/mL,MIC [3]: 0.125 µg/mL
COc1cccc2c1C(=O)c1nccc3cc4c(c-2c13)OCO4 [OXOSTEPHANINE],50 µg/mL,,
CC(C)C(O)C(=O)N/C=C\C=C/NC(=O)C(O)C(C)C (configuration not stated) [PHOMOENAMIDE],6.25 µg/mL,,
C=C[C@@]1(C)C=C2CC[C@@H]3[C@](C)(CCC[C@@]3(C)C(=O)O)[C@H]2CC1 [PIMARIC ACID],50 µg/mL,,
C/C=C/C(=O)OC[C@H]1O[C@@H](Oc2cccc3cc(C)c(C(C)=O)c(O)c23)[C@H](O)[C@@H](O)[C@@H]1O [RUMEXNEPOSIDE A],20.7 µM,,
CSCCC(NC(=O)NC(Cc1c[nH]c2ccccc12)C(=O)O)C(=O)NC(C(=O)N/C=C1\C[C@@H](O)[C@H](n2ccc(=O)[nH]c2=O)O1)C(C)N(C)C(=O)C(N)Cc1cccc(O)c1 (some centres not stated) [SANSANMYCIN A],,16 µg/mL,
CSCCC(NC(=O)NC(Cc1c[nH]c2ccccc12)C(=O)O)C(=O)NC(C(=O)N/C=C1\C[C@@H](O)[C@H](n2ccc(=O)[nH]c2=O)O1)C(C)N(C)C(=O)C1Cc2cc(O)ccc2C(C)(C)N1 (some centres not stated) [SANSANMYCIN F],,16 µg/mL,
CC(C)CC(NC(=O)NC(Cc1c[nH]c2ccccc12)C(=O)O)C(=O)NC(C(=O)N/C=C1\C[C@@H](O)[C@H](n2ccc(=O)[nH]c2=O)O1)C(C)N(C)C(=O)C1Cc2cc(O)ccc2C(C)(C)N1 (some centres not stated) [SANSANMYCIN G],,16 µg/mL,
CC(C)=CCC/C(C)=C/CC/C(C)=C/CC/C=C(\C)CC/C=C(\C)CCC=C(C)C [SQUALENE],,,MIC [2]: 28 µg/mL
COc1cc(O)c2c(O)c(C(C)=O)c(C)cc2c1 [TORACHRYSONE],6.1 µM,,

# From ChEMBL document CHEMBL2203104, “Recent advances in antitubercular natural products” (Eur J Med Chem, 2012)
